Format in all cases: in vivo
Data set [1] relates to rice leafhopper species Nephoteftix cincticeps. The data set is described as follows: Method D: Nephotettix cinciceps Screen. As to conditions: concentration of 500 ppm or less; rice plants dipped, L3 larvae, after 6 days at 25° C. The protocol: Method D: Nephotettix cinciceps Screen
The leaves of 12 rice plants having a stem length of 8 cm were dipped for 5 seconds into an aqueous solution of the formulated preparation to be examined. After the solution had run off, the rice plants treated in this manner were placed in a Petri dish and populated with about 20 larvae (L3 stage) of the rice leafhopper species Nephoteftix cincticeps. The Petri dish was closed and then stored in a climate chamber (16 hours of light/day, 25° C., 40-60% relative atmospheric humidity). After 6 days storage, the mortality among the leafhopper larvae was determined.

Data set [2] concerns tick larvae (Rhipicephalus sanguineus). The data set is described as follows: Method E: Rhipicephalus sanguineus Screen. As to conditions: concentration of 500 ppm or less, treated filter paper, after 24 hours at 25° C. The protocol: Method E: Rhipicephalus sanguineus Screen A solution of the formulated preparation to be examined was dropped onto filter paper. After solvent evaporation the filter paper was infested with 20-30 tick larvae (Rhipicephalus sanguineus). After 24 hours storage at 25° C. the efficacy of the preparation was determined.

For data set [3], the system named is black bean aphids (Aphis fabae). The data set is described as follows: Method B: Aphis fabae Screen. Conditions: concentration of 500 ppm or less; added to water of field bean (Vicia faba) plants, effect on aphids after 3 and 6 days at 25° C. The protocol: Method B: Aphis fabae Screen Germinated field bean seeds (Vicia faba) with roots were transferred into bottles filled with tap water and an aqueous solution of the formulated preparation to be examined (4 ml) was added. The plants were then infested with approximately 100 black bean aphids (Aphis fabae) and stored in a controlled-environment cabinet at 25° C. After 3 and 6 days storage, the effect of the preparation on the aphids was determined.

SMILES strings stand for the structures.

Consider `CC1=NN(c2c(Cl)cc(C(F)(F)F)cc2Cl)C(=O)C12SC1C=CC2C1` (stereo not drawn) [Compound 8, [1-(2,6-dichloro-4-trifluoromethylphenyl)-3-methylpyrazolin-5-one]-4-spiro-3′-(2′-thiabicyclo[2.2.1]hept-5′-ene)], for which, in data set [1], the “control (mortality among the leafhopper larvae)” value is “at least 50%”.

Turning to `CC1=C(C)CC2(SC1)C(=O)N(c1c(Cl)cc(C(F)(F)F)cc1Cl)N=C2C#N` (stereo not drawn) [Compound 9, [1-(2,6-dichloro-4-trifluoromethylphenyl)-3-cyanopyrazolin-5-one]-4-spiro-2′-(4′,5′-dimethyl-2′H-3′,6′-dihydrothiane)], the “control (efficacy)” value in data set [2] was “at least 50%”.

Take `CC1=NN(c2c(Cl)cc(C(F)(F)F)cc2Cl)C(=O)C12CC=C(c1ccccc1)C[S+]2[O-]` (stereo not drawn) [Compound 12, [1-(2,6-dichloro-4-trifluoromethylphenyl)-3-methylpyrazolin-5-one]-4-spiro-2′-(5′-phenyl-1′-oxo-2′H-3′,6′-dihydrothiane)]: in data set [3], the control entry is recorded as “at least 50%”.

These data come from US20030149028A1, “Pesticidal compositions” (priority 2001, published 2003).
